In ChEMBL document CHEMBL1134220, “The synthesis of beta-peptides containing guanidino groups” (Bioorg Med Chem Lett, 2001) one finds pKa data, which are given here for one compound.

A short description of the series: pKa was determined. It counts as physicochemical.

The term pKa denotes the negative logarithm of the acid dissociation constant. Higher therefore signals a group that holds its proton tightly. `N=C(N)N` [GUANIDINE] showed a pKa of 13.5.
